Experimental data taken from US20080194646A1, “Methods For Avoiding Edema in the Treatment of Metabolic, Inflammatory, and Cardiovascular Disorders” (priority 2005, published 2008).

How the values were obtained:
C57BL/6j ob/ob Mice [1] = experiment: glucose lowering activity of halofenate analogs in ob/ob mice (Example 14); type: in vivo; conditions: for plasma glucose concentrations vs vehicle: Student unpaired t-test; for Glucose 6 hours / Glucose 30 hours / Glucose 54 hours: plasma glucose; for Predose Glucose: baseline before dosing
Protocol: Male, 8-9 weeks old, C57BL/6J ob/ob mice were purchased from The Jackson Laboratory (Bar Harbor, Me., USA). Animals were housed (4-5 mice/cage) under standard laboratory conditions at 22±3° C. temperature and 50±20% relative humidity, and were maintained on a diet of Purina rodent chow and water ad libitum. Prior to treatment, blood was collected from the tail vein of each animal. Mice that had non-fasting plasma glucose levels between 250 and 500 mg/dl were used. Each treatment group consisted of 8-10 mice that were distributed so that the mean glucose levels were equivalent in each group at the start of the study. Mice were dosed orally by gavage once a day for 1-3 days with either vehicle, (−) halofenic acid, (+) analog 14, 29, 33, 34, 35, 36, 37, or 38 at 125 mg/kg or (−) analog 29, 36, 37 or 38 at 150 mg/kg. Compounds were delivered in a liquid formulation containing 5% (v/v) dimethyl sulfoxide (DMSO), 1% (v/v) tween 80 and 0.9% (w/v) methylcellulose. The gavage volume was 10 ml/kg. Blood samples were taken at 6 hours after the each dose and analyzed for plasma glucose. Food intake and body weight were measured daily. Plasma glucose concentrations were determined colorimetrically using glucose oxidase method (Sigma Chemical Co, St. Louis, Mo., USA). Significant difference between groups (comparing drug-treated to vehicle-treated) was evaluated using the Student unpaired t-test.

C57BL/6j ob/ob Mice [2] = experiment: anti-diabetic activity in C57BL/6j ob/ob mice (Example 20); type: in vivo; conditions: oral gavage once a day for 1-4 days; for minimal effective dose: Mus musculus, read-out: Potency
Protocol: The anti-diabetic activities of the compounds were evaluated in the C57BL/6j ob/ob Mice model. Male, 7-9 weeks old, C57BL/6J ob/ob mice were purchased from The Jackson Laboratory (Bar Harbor, Me., USA). Animals were housed (4-5 mice/cage) under standard laboratory conditions at 22±3° C. temperature and 50±20% relative humidity, and were maintained on a diet of Purina rodent chow and water ad libitum. Prior to treatment, blood was collected from the tail vein of each animal. Mice that had non-fasting plasma glucose levels between 250 and 500 mg/dl were used. Each treatment group consisted of 8-10 mice that were distributed so that the mean glucose levels were equivalent in each group at the start of the study. Mice were dosed orally by gavage once a day for 1-4 days with vehicle and one or more dose of test compound at a dose ranging from 5 to 125 mg/kg. Compounds were delivered in a liquid formulation containing 5% (v/v) dimethyl sulfoxide (DMSO), 1% (v/v) Tween 80® and 0.9% (w/v) methylcellulose. The gavage volume was 10 ml/kg. […] Food intake and body weight were measured daily. Plasma glucose concentrations were determined colorimetrically using a commercial glucose oxidase method (Sigma Chemical Co, St. Louis, Mo., USA). Significant difference between groups (comparing drug-treated to vehicle-treated) was evaluated using the Student unpaired t-test. Table 1 provides the relative potency of some selected compounds of the invention.

[3] = 125 mg/kg oral gavage once a day for 1-3 days
[4] = 125 mg/kg oral gavage once a day
[5] = group later dosed 125 mg/kg orally
[6] = glucose lowering, plasma glucose 6 hours after each dose
[7] = 150 mg/kg oral gavage, single dose
[8] = group later dosed 150 mg/kg orally

| SMILES | plasma glucose concentrations vs vehicle (C57BL/6j ob/ob Mice [1]; [3]) | Glucose 6 hours (C57BL/6j ob/ob Mice [1]; [4]) | Glucose 30 hours (C57BL/6j ob/ob Mice [1]; [4]) | Glucose 54 hours (C57BL/6j ob/ob Mice [1]; [4]) | Predose Glucose (C57BL/6j ob/ob Mice [1]; [5]) | also measured |
| --- | --- | --- | --- | --- | --- | --- |
| CC(=O)NCCOC(=O)C(Oc1cccc(C(F)(F)F)c1)c1ccc(F)cc1 (racemic) [(±)Analog 14] | significantly lowered plasma glucose concentrations at 6, 30 and 54 hours | 328.9 ± 34.1 mg/dL | 267.0 ± 21.3 mg/dL | 293.0 ± 29.4 mg/dL | 361.0 ± 17.1 mg/dL | – |
| CC(=O)NCCOC(=O)C(Oc1cccc(C(F)(F)F)c1)c1ccc(Br)cc1 (racemic) [(±)Analog 29] | significantly lowered plasma glucose concentrations at 6, 30 and 54 hours | 299.7 ± 24.5 mg/dL | 237.4 ± 14.9 mg/dL | 293.3 ± 9.7 mg/dL | 387.1 ± 16.0 mg/dL | – |
| CCCCOC(=O)C(Oc1cccc(C(F)(F)F)c1)c1ccc(Cl)cc1 (racemic) [(±)Analog 33] | significantly lowered plasma glucose concentrations at 6 and 54 hours | 227.5 ± 13.2 mg/dL | 298.0 ± 15.3 mg/dL | 286.6 ± 9.9 mg/dL | 292.0 ± 19.1 mg/dL | – |
| CN(C)CCOC(=O)C(Oc1cccc(C(F)(F)F)c1)c1ccc(Cl)cc1 (racemic) [(±)Analog 35] | significantly lowered plasma glucose concentrations at 30 and 54 hours | 319.6 ± 26.7 mg/dL | 276.8 ± 17.6 mg/dL | 286.2 ± 31.5 mg/dL | 387.0 ± 18.0 mg/dL | – |
| O=C(NCCOC(=O)C(Oc1cccc(C(F)(F)F)c1)c1ccc(Cl)cc1)c1ccccc1 (racemic) [(±)Analog 36] | significantly lowered plasma glucose concentrations at 30 and 54 hours | 300.5 ± 27.3 mg/dL | 249.7 ± 8.6 mg/dL | 272.2 ± 18.4 mg/dL | 329.7 ± 17.6 mg/dL | – |
| NC(=O)COC(=O)C(Oc1cccc(C(F)(F)F)c1)c1ccc(Cl)cc1 (racemic) [(±)Analog 37] | significantly lowered plasma glucose concentrations at 54 hours | 345.4 ± 19.7 mg/dL | 312.5 ± 21.7 mg/dL | 285.1 ± 14.7 mg/dL | 387.4 ± 18.8 mg/dL | – |
| CN(C)C(=O)COC(=O)C(Oc1cccc(C(F)(F)F)c1)c1ccc(Cl)cc1 (racemic) [(±)Analog 38] | significantly lowered plasma glucose concentrations at 6, 30 and 54 hours | 303.2 ± 18.2 mg/dL | 245.6 ± 15.6 mg/dL | 243.1 ± 10.6 mg/dL | 329.4 ± 18.9 mg/dL | – |
| O=C(O)C(Oc1ccc(C(F)(F)F)cc1)c1cccc(C(F)(F)F)c1 (racemic) [Compound 39, (4-trifluoromethyl-phenoxy)-(3-trifluoromethyl-phenyl)-acetic acid] | – | – | – | – | – | minimal effective dose (C57BL/6j ob/ob Mice [2]; [6]): ≤ 125 mg/kg; Insulin Level compared with vehicle (C57BL/6j ob/ob Mice [2]): Lower |
| CC(=O)NCCOC(=O)C(Oc1cccc(C(F)(F)F)c1)c1ccc(Br)cc1 (single isomer, unassigned; (-)) [(−)Analog 29] | – | – | – | – | – | plasma glucose concentrations vs vehicle (C57BL/6j ob/ob Mice [1]; [7]): significantly reduced plasma glucose concentrations at 6 hours; Glucose 6 hours (C57BL/6j ob/ob Mice [1]; [7]): 333.5 ± 16.1 mg/dL; Predose Glucose (C57BL/6j ob/ob Mice [1]; [8]): 372.2 ± 17.1 mg/dL |
| O=C(NCCOC(=O)C(Oc1cccc(C(F)(F)F)c1)c1ccc(Cl)cc1)c1ccccc1 (single isomer, unassigned; (-)) [(−)Analog 36] | – | – | – | – | – | plasma glucose concentrations vs vehicle (C57BL/6j ob/ob Mice [1]; [7]): significantly reduced plasma glucose concentrations at 6 hours; Glucose 6 hours (C57BL/6j ob/ob Mice [1]; [7]): 281.1 ± 18.2 mg/dL; Predose Glucose (C57BL/6j ob/ob Mice [1]; [8]): 373.2 ± 15.5 mg/dL |
| NC(=O)COC(=O)C(Oc1cccc(C(F)(F)F)c1)c1ccc(Cl)cc1 (single isomer, unassigned; (-)) [(−)Analog 37] | – | – | – | – | – | plasma glucose concentrations vs vehicle (C57BL/6j ob/ob Mice [1]; [7]): significantly reduced plasma glucose concentrations at 6 hours; Glucose 6 hours (C57BL/6j ob/ob Mice [1]; [7]): 271.7 ± 22.5 mg/dL; Predose Glucose (C57BL/6j ob/ob Mice [1]; [8]): 373.4 ± 16.1 mg/dL |
| CN(C)C(=O)COC(=O)C(Oc1cccc(C(F)(F)F)c1)c1ccc(Cl)cc1 (single isomer, unassigned; (-)) [(−)Analog 38] | – | – | – | – | – | plasma glucose concentrations vs vehicle (C57BL/6j ob/ob Mice [1]; [7]): significantly reduced plasma glucose concentrations at 6 hours; Glucose 6 hours (C57BL/6j ob/ob Mice [1]; [7]): 251.2 ± 23.6 mg/dL; Predose Glucose (C57BL/6j ob/ob Mice [1]; [8]): 373.4 ± 16.1 mg/dL |
| O=C(O)C(Oc1ccc(C(F)(F)F)cc1)c1cccc(C(F)(F)F)c1 (stereo not drawn) [(+)−39, (4-trifluoromethyl-phenoxy)-(3-trifluoromethyl-phenyl)-acetic acid] | – | – | – | – | – | minimal effective dose (C57BL/6j ob/ob Mice [2]; [6]): ≤ 125 mg/kg |
| O=C(O)C(Oc1ccc(C(F)(F)F)cc1)c1cccc(C(F)(F)F)c1 (stereo not drawn) [(−)−39, (4-trifluoromethyl-phenoxy)-(3-trifluoromethyl-phenyl)-acetic acid] | – | – | – | – | – | Potency (C57BL/6j ob/ob Mice [2]; [6]): ++ (effective for glucose lowering at the dose of ≦125 mg/kg); Insulin Level compared with vehicle (C57BL/6j ob/ob Mice [2]): Lower |
| O=C(O)C(Oc1cc(C(F)(F)F)cc(C(F)(F)F)c1)c1ccc(C(F)(F)F)cc1 (centres unmarked) [Compound 81] | – | – | – | – | – | Insulin Level compared with vehicle (C57BL/6j ob/ob Mice [2]): Lower |
